Source: patent publication US20170340690A1, “METHOD FOR IMPROVING INTESTINAL HEALTH USING EXTRACTS OF CODONOPSIS LANCEOLATA” (KOREA INSTITUTE OF SCIENCE AND TECHNOLOGY, priority 2016, published 2017)

How the values were obtained:
[1] = tested on: intestinal microorganisms; test: Measurement of growth of intestinal microorganisms (absorbance at 600 nm); type: cell-based, human; settings: normal medium condition (FIG. 1), 37° C., 48 hours, extract 100 μg/mL, FOS 1 mg/mL, chloramphenicol 10 or 40 μg/mL
[2] = tested on: intestinal microorganisms; test: Gas chromatographic analysis of content of short-chain fatty acids in culture medium of intestinal microorganisms; type: cell-based, human; settings: 48 hours, extract 100 μg/mL, FOS 1 mg/mL, chloramphenicol 10 or 40 μg/mL; for Content (mM) of short-chain fatty acids: non-treated control 18.6 mM
Description: The analysis sample was subjected to centrifugation of the 96-well plate at 3500 rpm for 10 minutes. 400 μL of the obtained supernatant was stabilized by adding 20 μL of 50% sulfuric acid and then 40 μL of an internal standard (1% 2-methylpentanoic acid) was added. Then, after adding 400 μL of ethyl ether, the mixture was mixed for about 2 minutes by vortexing. The sample was centrifuged and the top ethyl ether layer was recovered and subjected to GC analysis. The analysis was performed using Bruker 450-GC and the Supelco's Nukol Fused silica capillary column ([…]×0.25 mm×0.25 μm). The analysis condition is described in Table 4.

β-glucuronidase = settings: enzymatic activity divided by OD600; 37° C., 48 hours anaerobic culture; extract 100 μg/mL, FOS 1 mg/mL, chloramphenicol 10 or 40 μg/mL (FIG. 3)
Description: The samples were transfered to an anaerobic workstation within 30 minutes and treated quickly. After adding glycerol as an additive for storage at low temperature, the mixtures were stored in an ultra-low temperature freezer with 40 mL each and were used as samples for culturing of intestinal microorganisms.
Each bioreactor containing 300 mL of a medium was sterilized and maintained at an anaerobic condition by injecting nitrogen gas. Then, the sample of intestinal microorganisms prepared in Test Example 1 was inoculated. After conducting batch culturing for 24 hours, continuous culturing was performed using a medium of the same composition. Total residence time was 24 hours. Culturing temperature was maintained at 37° C. and pH was maintained at 5.5 using a 1 N hydrochloric acid solution and a 1 N sodium hydroxide solution. […] The culturing condition was maintained for at least 30 days. […]
The culture medium of intestinal microorganisms incubated and maintained with a culture medium in a fermenter under an anaerobic condition. […] The supernatant was taken and absorbance was measured at 405 nm. Then, relative β-glucuronidase activity (%) was calculated by dividing the enzymatic activity by the degree of growth of intestinal microorganisms (OD600).

tryptophanase = settings: enzymatic activity divided by OD600; 37° C., 48 hours anaerobic culture; extract 100 μg/mL, FOS 1 mg/mL, chloramphenicol 10 or 40 μg/mL (FIG. 4)
Description: In order to quickly evaluate the effect of the candidate materials on improvement of intestinal microflora, culturing was performed using a 96-well plate. 10 μL of the culture medium of intestinal microorganisms maintained stably through anaerobic continuous culturing was inoculated to 1 mL of a medium for investigation described in Table 3. Culturing was performed at 37° C. for 48 hours by treating an extract of Codonopsis lanceolata for evaluating the effect of improving intestinal microflora at a concentration of 100 μg/mL (0.2% DMSO). […] At the same time, chloramphenicol (10 or 40 μg/mL) which is an antibiotic known to worsen intestinal microflora was used to compare the effect of improving intestinal microflora. Then, the effect of improving intestinal microflora was investigated by measuring the growth of intestinal microorganisms, the enzymatic activity of harmful bacteria, the content of short-chain fatty acids, etc. using the culture medium of microorganisms.
The culture medium of intestinal microorganisms incubated and maintained with a culture medium in a fermenter under an anaerobic condition. […] The supernatant was taken and absorbance was measured at 550 nm. Then, relative tryptophanase activity (%) was calculated by dividing the enzymatic activity by the degree of growth of intestinal microorganisms (OD600).

## O=C(N[C@H](CO)[C@H](O)c1ccc([N+](=O)[O-])cc1)C(Cl)Cl [chloramphenicol]
[1]
  growth of intestinal microorganisms: decreased growth of intestinal microorganisms
[2]
  Composition of short-chain fatty acids (%) Acetate: 54.36 ± 3.23%
  Composition of short-chain fatty acids (%) Butyrate: 20.24 ± 0.64%
  Composition of short-chain fatty acids (%) Propionate: 25.40 ± 0.89%
  Content (mM) of short-chain fatty acids: 2.03 mM
[2]; listed as Antibiotic (chloramphenicol)
  Content (mM) of short-chain fatty acids: 2.03 ± 0.06 mM
β-glucuronidase
  relative β-glucuronidase activity: increased β-glucuronidase activity
tryptophanase
  relative tryptophanase activity: increased tryptophanase activity
